{"source": "patent US20260097083A1", "about": "“METHOD FOR PRODUCING PANCREATIC ENDODERM CELLS” (Kyoto University, priority 2022, published 2026)", "test_system": "pancreatic endoderm cells derived from ES cells (KhES-3 line)", "test": "Expansion culture of pancreatic endoderm cells derived from ES cells", "assay_type": "cell-based, human", "procedure": "PDX1^+/NKX6.1^+ pancreatic endoderm cells were produced from iPS cells (585A1 line) or ES cells (KhES-3 line) on a 6-well plate using the method by Toyoda et al. (Toyoda T, et al. Stem Cell Reports 2017). Briefly, the undifferentiated cells above were seeded at 1×10^6/well on a 6-well plate coated with iMatrix-511 silk. The cells were cultured in RPMI to which an S1 culture medium (1×B-27 Supplement, 100 U/ml penicillin/streptomycin, 100 ng/ml activin A, and CHIR99021 (Day 1: 3 μM, Days 2 and 3: 1 μM, and Day 4: 0 μM)) had been added for 4 days, in an S2 culture medium (improved MEM to which 0.5×B-27 Supplement, 100 U/ml penicillin/streptomycin, and 50 ng/ml KGF/FGF7 had been added) for 5 days, and in an S3 culture medium (improved MEM to which 0.5×B-27 Supplement, 100 U/ml penicillin/streptomycin, 50 ng/ml KGF/FGF7, 0.2 μM LDN-193189, 0.1 μM SANT-1, and 10 nM TTNPB had been added) for 2 days. The cells were detached from the 6-well plate using trypsin, and were reseeded on a 6-well plate coated with iMatrix-511 silk at 1.5×10^6/well using the S3 culture medium again. […] (5) The cells were suspended in improved MEM (containing 10 μM Y-27632, 0.5×B-27 Supplement, and 100 U/ml penicillin/streptomycin), and were counted. […]"}
{"smiles": "C[C@@H](N)[C@H]1CC[C@H](C(=O)Nc2ccncc2)CC1", "note": "[Y-27632]", "values": [{"measurement": "expansion culture of the pancreatic endoderm cells", "setting": "FIG. 4-H", "result": "similarly possible"}, {"measurement": "cell (nuclear) shape", "setting": "Y-27632 10 μM, passaged 5 times (5 weeks), FIGS. 5-B and 5-C", "result": "changed their shape (elongated elliptical shape)"}]}
